Test results taken from patent US8685936B2, “Sphingosine kinase inhibitor prodrugs” (Apogee Biotechnology Corporation, priority 2009, dated 2014).
“Also recorded” adds a separate entry of the source.

Tests used:
[1] = Conversion of Compound 2 to Compound 1 in living mice; plasma levels of Compound 1 by HPLC; assay type: in vivo
Procedure: FIG. 4. Conversion of Compound 2 into Compound 1 in vivo. Balb/C female mice, 6-8 weeks old, were dosed with either Compound 1 (●) or Compound 2 (♦) at 50 mg/kg by intravenous injection. Mice were euthanized at the indicate times after injection, and blood was harvested by cardiac puncture and plasma was prepared. The plasma was then extracted and analyzed for Compound 1 levels by HPLC.
To extend the in vitro studies described above, the ability of Compound 2 to be converted to Compound 1 in an in vivo test system was determined. In these experiments, Compound 1 or Compound 2 was dissolved in PEG400 and administered to female Balb/C mice at a dose of 50 mg/kg by intravenous injection. Mice were sacrificed and blood was removed via cardiac puncture at 2 minutes, 15 minutes, 30 minutes or 60 minutes. The concentration of Compound 1 in the blood of the animals at each of the time points was determined using HPLC with UV detection as described in the previous Example. […] In the case of administration of Compound 2, plasma concentrations of Compound 1 rose during the first 30 minutes and then were decreased with a half-time of clearance of approximately 20 minutes.

[2] = tested on: DSS-colitis model; test: Acute DSS-colitis model of inflammatory bowel disease; assay type: in vivo, C57BL/6 mice
Procedure: FIG. 7. Effects of Compound 1 and Compound 2 on the Disease Activity Index (DAI) in the acute DSS-colitis model. […] After 6 days, the DAI was calculated for each group. Values represent the mean±std. dev. for 5-6 mice per group. […] FIG. 8. Effects of Compound 1 and Compound 2 on colon length in the acute DSS-colitis model. […] After 6 days, the animals were sacrificed and the length of the colon was measured. Values represent the mean±std. dev. for 6-7 mice per group. In this model, colon length decreases as the disease progresses. […] FIG. 9. Effects of Compound 1 and Compound 2 on neutrophil infiltration into the colon in the acute DSS-colitis model. […] After 6 days, the animals were sacrificed and the colons were harvested. Myeloperoxidase activity (MPO) was measured and normalized by the protein concentration of the samples. Values represent the mean±std. dev. for 6-7 mice per group. In this model, MPO activity in the colon increases as a result of neutrophil infiltration into the colon as the disease progresses. […] FIG. 10. Effects of ester prodrugs on colon length in the acute DSS-colitis model. C57BL/6 mice were treated for 6 days as follows: 2% DSS in the drinking water and daily oral administration of Vehicle (described in FIG. 7); or 2% DSS in the drinking water and oral administration of 50 mg/kg the indicated ester prodrugs in Vehicle. After 6 days, the animals were sacrificed and the length of the colon was measured. Values represent the mean±std. dev. for 4-5 mice per group. In this model, colon length decreases as the disease progresses. […] FIG. 11. Effects of ester prodrugs on neutrophil infiltration into the colon in the acute DSS-colitis model. C57BL/6 mice were treated for 6 days as follows: 2% DSS in the drinking water and daily oral administration of Vehicle (described in FIG. 7); or 2% DSS in the drinking water and oral administration of 50 mg/kg the indicated ester prodrugs in Vehicle. After 6 days, the animals were sacrificed and the length of the colon was measured. Values represent the mean±std. dev. for 4-5 mice per group. In this model, MPO activity in the colon increases as a result of neutrophil infiltration into the colon as the disease progresses. […] In these experiments, male C57BL/6 mice were provided with standard rodent diet and water ad libitum. After their acclimation, the animals were randomly divided into groups of 5 or 6 for DSS (40,000 MW from ICN Biomedicals, Inc., Aurora, Ohio)- and drug-treatment. The Compounds were dissolved in a Vehicle consisting of 46.7% PEG 400, 46.7% of a solution of 0.375% Tween 80 in saline and 6.6% ethanol, and given once daily (starting on Day 0) by oral gavage in a volume of 0.1 mL per dose. The mice were given normal drinking water or 2% DSS (starting on Day 0) and treated orally with Compound 1 or Compound 2 at a dose of 50 mg/kg daily. The body weight of each animal was measured each day, and the Disease Activity Index (DAI) was scored for each animal on Day 6. On Day 6, the animals were sacrificed by cervical dislocation and the entire colon was removed and measured to the nearest 0.1 cm. The distal 3 cm of the colons were used for biochemical analyses of inflammation markers.

[3] = tested on: TNBS-induced Crohn's Disease model; test: TNBS-induced Crohn's Disease model; assay type: in vivo
Procedure: FIG. 12. Effects of Compound 1 and Compound 2 on colon histology in the TNBS-induced Crohn's Disease model. On Day 0, female Sprague-Dawley rats were administered TNBS using a stainless steel catheter that was inserted into the colon (8 cm proximal to the anus; 1.0 mL of solution containing 30 mg TNBS and 20% ethanol in PBS). On Days 0-5 animals received daily oral gavage of Vehicle (described in FIG. 7) or 50 mg/kg of Compound 1 or Compound 2 in Vehicle. On Day 6, the colons were removed, weighed and scored for macroscopic damage. The distal 6 cm were transected for subsequent histology and biochemical analyses. In this model, the macroscopic score is an index of histologic damage to the colon which increases as the disease progresses.
FIG. 13. Effects of Compound 1 and Compound 2 on colon weight in the TNBS-induced Crohn's Disease model. Colon weights were measured for the rats described in FIG. 12. Values represent the mean±std. dev. for 5-6 rats per group. In this model, colon weight increases as the disease progresses due to progressive inflammation-mediated edema.
FIG. 14. Effects of Compound 2 on neutrophil infiltration into the colon in the TNBS-induced Crohn's Disease model. Neutrophil infiltration was evaluated in the rats described in FIG. 12. Values represent the mean±std. dev. for 5-6 rats per group. In this model, MPO activity in the colon increases as a result of neutrophil infiltration into the colon as the disease progresses.
The trinitrobenzene sulfonic acid (TNBS) model in rats provides a rapid, reliable and reproducible IBD model that mimics the manifestations of Crohn's Disease. Application of the hapten TNBS to the colon in the presence of ethanol results in transmural infiltrative disease that is limited to the colon and appears to be an IL-12-driven, Th1-mediated immunologic response. […] TNBS induces measurable injury within 2 to 3 days, peak acute inflammation within a week, and gradual progression into chronic inflammation lasting about 2 months.
To test the efficacy of the Compounds, groups of female Sprague-Dawley rats were administered TNBS on Day 0 and treated with vehicle (as the negative control group), Compound 1 or Compound 2 on Days 0-5 by oral gavage at a dose of 50 mg/kg/day. […] Disease progression was evaluated by macroscopic score, colon weight and colon MPO activity at sacrifice. The macroscopic score measures macroscopic damage within the distal 6 cm of the colon using a system that considers the extent of and number of ulcerations.

[4] = TNBS Day 0, 50 mg/kg/day oral gavage Days 0-5, Day 6, female Sprague-Dawley rats

Structure (SMILES): CC(=O)Oc1ccc(CCNC(=O)C23CC4CC(C2)CC(c2ccc(Cl)cc2)(C4)C3)cc1OC(C)=O [Compound 2, Acetic acid 2-acetoxy-5-(2-{[3-(4-chlorophenyl)-adamantane-1-carbonyl]-amino}ethyl)phenyl ester]
- area-under-the-curve (AUC) for exposure to circulating Compound 1, compared with dosing Compound 1 itself ([1]; 50 mg/kg intravenous, female Balb/C mice): much greater
- half-time for clearance of Compound 1 from plasma ([1]; 50 mg/kg of the named compound by intravenous injection in PEG400, female Balb/C mice, Compound 1 measured): approximately 20 minutes
- Disease Activity Index (DAI) ([2]; 2% DSS in drinking water, 50 mg/kg daily oral, Day 6, C57BL/6 mice, 50 mg/kg): reduced the intensity of the IBD manifestations; also recorded: superior to Compound 1 in reducing the DAI
- colon myeloperoxidase (MPO) activity (neutrophil infiltration) ([2]; 2% DSS, 50 mg/kg daily oral, Day 6, C57BL/6 mice (Example 16, FIG. 9), 50 mg/kg): markedly attenuated; also recorded: reduced to a greater extent
- colon length (contraction of the colon), ester prodrugs ([2]; 2% DSS, 50 mg/kg oral, 6 days, C57BL/6 mice, 4-5 per group (Example 17, FIG. 10)): effective in preventing the contraction of the colons
- colon length ([2]; 2% DSS, 50 mg/kg oral, Day 6, C57BL/6 mice (Example 16, FIG. 8), 50 mg/kg): colons of significantly longer length; also recorded: superior to the protective effect of Compound 1
- Compound-related toxicities ([3]; 50 mg/kg/day oral gavage Days 0-5, rats sacrificed on Day 6): no Compound-related toxicities apparent
- Macroscopic Score of colon damage [3, 4]: reduced the Macroscopic Score
- colon MPO activity (granulocyte infiltration) [3, 4]: reduced MPO activity in the colon
- colon weight [3, 4]: reduced the elevation of the colon weight
